Experimental data reported in ChEMBL document CHEMBL4673362, “Design, synthesis, and biological evaluation of 2,6,7-substituted pyrrolo[2,3-d]pyrimidines as cyclin dependent kinase inhibitor in pancreatic cancer cells” (Bioorg Med Chem Lett, 2021).
pIC50: −log10 of the molar value. ≈ marks a conversion by molar mass, not a printed value. Each block holds one compound with its values, some of them ahead of it. Calls of active or inactive are those of the source. The calls are words filed in the database; no cut-off is given here.

Assays:
[1] = system: MIA PaCa-2; assay: Cell cycle arrest in human MIA PaCa-2 cells assessed as accumulation at G1 phase at 2.5 uM (reference value: 44.09 %); assay type: functional
[2] = system: MIA PaCa-2; assay: Cell cycle arrest in human MIA PaCa-2 cells assessed as accumulation at G1 phase at 1.6 uM (reference value: 44.09 %); assay type: functional
[3] = system: MIA PaCa-2; assay: Cell cycle arrest in human MIA PaCa-2 cells assessed as accumulation at G1 phase at 0.8 uM (reference value: 44.09 %); assay type: functional
[4] = system: MIA PaCa-2; assay: Cell cycle arrest in human MIA PaCa-2 cells assessed as accumulation at G2 phase at 2.5 uM (reference value: 10.64 %); assay type: functional
[5] = system: MIA PaCa-2; assay: Cell cycle arrest in human MIA PaCa-2 cells assessed as accumulation at G2 phase at 1.6 uM (reference value: 10.64 %); assay type: functional
[6] = system: MIA PaCa-2; assay: Cell cycle arrest in human MIA PaCa-2 cells assessed as accumulation at G2 phase at 0.8 uM (reference value: 10.64 %); assay type: functional
[7] = system: MIA PaCa-2; assay: Cell cycle arrest in human MIA PaCa-2 cells assessed as accumulation at S phase at 2.5 uM (reference value: 45.27 %); assay type: functional
[8] = system: MIA PaCa-2; assay: Cell cycle arrest in human MIA PaCa-2 cells assessed as accumulation at S phase at 1.6 uM (reference value: 45.27 %); assay type: functional
[9] = system: MIA PaCa-2; assay: Cell cycle arrest in human MIA PaCa-2 cells assessed as accumulation at S phase at 0.8 uM (reference value: 45.27 %); assay type: functional
[10] = system: BXPC-3; assay: Antiproliferative activity against human BxPC-3 cells assessed as inhibition of cell growth by MTT assay; assay type: functional, cell-based
[11] = system: MIA PaCa-2; assay: Antiproliferative activity against human MIA PaCa-2 cells assessed as inhibition of cell growth by MTT assay; assay type: functional, cell-based
[12] = Solubility of the compound at pH 7.4; assay type: physicochemical; conditions: buffer
[13] = Permeability of the compound at pH 7.4 by PAMPA; assay type: ADME; conditions: read-out: permeability
[14] = Permeability of the compound at pH 5.0 by PAMPA; assay type: ADME; conditions: read-out: permeability
[15] = Metabolic stability in rat liver microsomes assessed as half life; assay type: ADME, Microsome
[16] = Metabolic stability in human liver microsomes assessed as half life; assay type: ADME, Microsome
[17] = biological target: Cyclin-dependent kinase 4/cyclin D1 (Homo sapiens, UniProt P11802); assay: Inhibition of CDK4/cyclin D1 (unknown origin); assay type: protein-complex assay
Sequence of Cyclin-dependent kinase 4/cyclin D1 (P11802 whole entry): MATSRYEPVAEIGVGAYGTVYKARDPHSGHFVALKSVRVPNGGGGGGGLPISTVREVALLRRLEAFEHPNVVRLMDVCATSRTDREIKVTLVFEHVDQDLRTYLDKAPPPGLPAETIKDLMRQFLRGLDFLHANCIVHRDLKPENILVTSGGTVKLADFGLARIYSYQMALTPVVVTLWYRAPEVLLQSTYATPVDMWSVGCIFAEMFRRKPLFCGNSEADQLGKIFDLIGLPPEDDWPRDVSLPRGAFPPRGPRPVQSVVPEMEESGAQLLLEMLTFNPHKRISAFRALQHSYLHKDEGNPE
Sequence of Cyclin-dependent kinase 4/cyclin D1 (P24385 whole entry, further chain): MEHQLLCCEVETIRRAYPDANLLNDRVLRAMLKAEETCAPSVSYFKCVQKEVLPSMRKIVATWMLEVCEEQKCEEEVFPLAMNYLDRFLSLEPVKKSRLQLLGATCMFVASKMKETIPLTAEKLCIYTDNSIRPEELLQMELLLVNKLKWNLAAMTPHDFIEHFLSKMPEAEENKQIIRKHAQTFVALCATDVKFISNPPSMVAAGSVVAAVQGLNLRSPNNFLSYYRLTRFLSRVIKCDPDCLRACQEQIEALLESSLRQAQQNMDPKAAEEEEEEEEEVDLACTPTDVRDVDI

[18] = biological target: CDK6/cyclin D1 (Homo sapiens, UniProt Q00534); assay: Inhibition of CDK6/cyclin D1 (unknown origin); assay type: protein-complex assay
Sequence of CDK6/cyclin D1 (P24385 whole entry): as the sequence (P24385 whole entry, further chain) above
Sequence of CDK6/cyclin D1 (Q00534 whole entry): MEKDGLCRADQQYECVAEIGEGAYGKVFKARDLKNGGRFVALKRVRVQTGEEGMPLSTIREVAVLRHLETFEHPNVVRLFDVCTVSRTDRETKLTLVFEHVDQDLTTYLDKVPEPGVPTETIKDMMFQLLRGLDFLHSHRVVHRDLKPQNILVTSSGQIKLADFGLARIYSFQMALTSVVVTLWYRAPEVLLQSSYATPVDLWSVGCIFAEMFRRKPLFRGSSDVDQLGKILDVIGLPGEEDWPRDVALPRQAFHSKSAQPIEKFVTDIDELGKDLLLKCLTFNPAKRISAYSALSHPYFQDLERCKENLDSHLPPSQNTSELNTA

[19] = biological target: Cyclin-dependent kinase 6 (Homo sapiens) (UniProt Q00534); assay: Inhibition of CDK6 (unknown origin) at 1 uM
Sequence of Cyclin-dependent kinase 6 (Homo sapiens) (Q00534 whole entry): as above

[20] = biological target: Cyclin-dependent kinase 4 (Homo sapiens) (UniProt P11802); assay: Inhibition of CDK4 (unknown origin) at 1 uM
Sequence of Cyclin-dependent kinase 4 (Homo sapiens) (P11802 whole entry): as the sequence (P11802 whole entry) above

[21] = system: MIA PaCa-2; assay: Antiproliferative activity against human MIA PaCa-2 cells assessed as inhibition of cell proliferation at 0.5 uM in presence of 10 to 20 nM PI3K/mTOR inhibitor, BEZ235; assay type: functional, cell-based
[22] = system: MIA PaCa-2; assay: Potency index, ratio of ribociclib IC50 to test compound IC50 for antiproliferative activity against human MIA PaCa-2 cells by MTT assay; assay type: functional
[23] = biological target: CDK6/cyclin D1 (Homo sapiens) (UniProt P24385+Q00534); assay: Inhibition of human CDK6/cyclin D1 at 1 uM relative to control; assay type: protein-complex assay
[24] = biological target: Cyclin-dependent kinase 4/cyclin D1 (Homo sapiens) (UniProt P11802+P24385); assay: Inhibition of human CDK4/cyclin D1 at 1 uM relative to control; assay type: protein-complex assay
[25] = biological target: CDK4/Cyclin D3 (Homo sapiens) (UniProt P11802+P30281); assay: Inhibition of human CDK4/cyclin D3 at 1 uM relative to control; assay type: protein-complex assay
[26] = biological target: Mitogen-activated protein kinase kinase kinase 9 (Homo sapiens) (UniProt P80192); assay: Inhibition of human MLK1 at 1 uM relative to control
Sequence of Mitogen-activated protein kinase kinase kinase 9 (Homo sapiens) (P80192 whole entry, looked up): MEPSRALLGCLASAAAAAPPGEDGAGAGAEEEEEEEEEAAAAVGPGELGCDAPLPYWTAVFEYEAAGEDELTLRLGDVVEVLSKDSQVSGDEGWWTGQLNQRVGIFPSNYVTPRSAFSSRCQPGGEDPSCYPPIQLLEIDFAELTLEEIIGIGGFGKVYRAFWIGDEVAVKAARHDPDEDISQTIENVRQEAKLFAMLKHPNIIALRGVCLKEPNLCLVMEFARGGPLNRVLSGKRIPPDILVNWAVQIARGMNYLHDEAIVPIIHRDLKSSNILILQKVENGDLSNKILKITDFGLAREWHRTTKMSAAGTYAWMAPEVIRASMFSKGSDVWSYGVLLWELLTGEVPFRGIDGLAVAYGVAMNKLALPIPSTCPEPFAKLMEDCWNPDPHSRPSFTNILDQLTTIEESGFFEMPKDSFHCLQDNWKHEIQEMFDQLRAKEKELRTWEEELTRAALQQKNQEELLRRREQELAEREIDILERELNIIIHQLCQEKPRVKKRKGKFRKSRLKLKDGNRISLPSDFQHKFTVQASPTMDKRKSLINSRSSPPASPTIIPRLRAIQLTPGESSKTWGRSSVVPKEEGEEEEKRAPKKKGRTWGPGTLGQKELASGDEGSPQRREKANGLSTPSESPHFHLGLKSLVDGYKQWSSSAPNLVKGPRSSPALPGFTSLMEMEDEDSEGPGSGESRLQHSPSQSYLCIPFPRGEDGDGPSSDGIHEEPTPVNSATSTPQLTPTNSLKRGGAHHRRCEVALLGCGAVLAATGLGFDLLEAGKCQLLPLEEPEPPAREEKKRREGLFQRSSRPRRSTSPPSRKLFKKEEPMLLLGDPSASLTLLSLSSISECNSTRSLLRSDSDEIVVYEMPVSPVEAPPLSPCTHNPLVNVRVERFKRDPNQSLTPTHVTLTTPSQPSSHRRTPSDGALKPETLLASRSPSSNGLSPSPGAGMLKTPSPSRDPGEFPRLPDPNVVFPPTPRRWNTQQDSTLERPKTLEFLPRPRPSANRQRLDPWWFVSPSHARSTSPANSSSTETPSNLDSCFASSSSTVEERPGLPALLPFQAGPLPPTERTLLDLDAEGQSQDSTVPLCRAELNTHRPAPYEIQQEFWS

[27] = biological target: Tyrosine-protein kinase Fer (Homo sapiens) (UniProt P16591); assay: Inhibition of human FER at 1 uM relative to control
Sequence of Tyrosine-protein kinase Fer (Homo sapiens) (P16591 whole entry, looked up): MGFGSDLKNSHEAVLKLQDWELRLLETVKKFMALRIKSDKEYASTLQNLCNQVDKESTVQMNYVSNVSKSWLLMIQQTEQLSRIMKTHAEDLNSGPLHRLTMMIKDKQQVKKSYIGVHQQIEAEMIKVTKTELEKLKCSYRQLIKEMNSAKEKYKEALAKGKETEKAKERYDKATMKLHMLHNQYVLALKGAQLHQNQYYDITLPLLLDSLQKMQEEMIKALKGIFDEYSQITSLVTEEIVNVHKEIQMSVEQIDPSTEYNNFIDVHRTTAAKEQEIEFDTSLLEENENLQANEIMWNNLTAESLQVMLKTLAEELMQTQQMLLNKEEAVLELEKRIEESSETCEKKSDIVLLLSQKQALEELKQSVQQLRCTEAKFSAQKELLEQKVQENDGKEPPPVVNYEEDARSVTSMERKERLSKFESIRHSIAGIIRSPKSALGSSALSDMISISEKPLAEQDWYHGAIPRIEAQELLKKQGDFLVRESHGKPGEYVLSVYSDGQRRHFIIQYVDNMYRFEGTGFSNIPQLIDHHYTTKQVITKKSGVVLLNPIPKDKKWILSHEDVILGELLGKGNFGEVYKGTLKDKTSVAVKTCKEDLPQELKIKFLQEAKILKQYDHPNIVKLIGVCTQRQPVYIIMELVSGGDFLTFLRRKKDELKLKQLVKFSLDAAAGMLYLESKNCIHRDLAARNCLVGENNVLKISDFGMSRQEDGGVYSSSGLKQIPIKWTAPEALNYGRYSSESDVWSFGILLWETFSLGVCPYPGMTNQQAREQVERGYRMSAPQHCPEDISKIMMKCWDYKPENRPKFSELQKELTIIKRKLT

[28] = biological target: Calcium/calmodulin-dependent protein kinase type 1 (Homo sapiens) (UniProt Q14012); assay: Inhibition of human CAMK1 at 1 uM relative to control
Sequence of Calcium/calmodulin-dependent protein kinase type 1 (Homo sapiens) (Q14012 whole entry, looked up): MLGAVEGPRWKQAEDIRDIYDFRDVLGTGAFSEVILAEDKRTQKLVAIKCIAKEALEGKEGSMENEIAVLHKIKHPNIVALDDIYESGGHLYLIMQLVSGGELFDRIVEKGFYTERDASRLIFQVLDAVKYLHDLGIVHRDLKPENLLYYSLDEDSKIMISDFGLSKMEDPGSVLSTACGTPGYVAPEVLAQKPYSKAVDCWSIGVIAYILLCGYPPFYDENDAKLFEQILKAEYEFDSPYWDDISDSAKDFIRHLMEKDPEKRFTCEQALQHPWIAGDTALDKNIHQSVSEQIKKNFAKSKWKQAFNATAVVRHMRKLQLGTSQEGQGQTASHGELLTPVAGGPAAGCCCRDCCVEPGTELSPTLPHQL

[29] = biological target: Calcium/calmodulin-dependent protein kinase kinase 1 (Homo sapiens) (UniProt Q8N5S9); assay: Inhibition of human CAMKKA at 1 uM relative to control
Sequence of Calcium/calmodulin-dependent protein kinase kinase 1 (Homo sapiens) (Q8N5S9 whole entry, looked up): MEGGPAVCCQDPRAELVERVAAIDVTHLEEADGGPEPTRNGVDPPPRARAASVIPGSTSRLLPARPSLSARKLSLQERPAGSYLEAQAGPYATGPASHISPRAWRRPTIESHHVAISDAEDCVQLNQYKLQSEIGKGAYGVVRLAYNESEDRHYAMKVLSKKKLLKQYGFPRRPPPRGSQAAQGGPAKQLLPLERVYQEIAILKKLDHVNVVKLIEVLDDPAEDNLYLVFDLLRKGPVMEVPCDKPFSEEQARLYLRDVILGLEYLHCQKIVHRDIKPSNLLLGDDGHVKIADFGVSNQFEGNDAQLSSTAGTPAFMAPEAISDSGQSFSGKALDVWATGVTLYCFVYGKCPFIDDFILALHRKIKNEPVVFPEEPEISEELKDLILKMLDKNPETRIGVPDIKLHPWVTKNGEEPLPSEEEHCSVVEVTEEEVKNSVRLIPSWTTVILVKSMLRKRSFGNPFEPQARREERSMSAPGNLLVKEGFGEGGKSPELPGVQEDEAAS

[30] = biological target: Dual specificity protein kinase TTK (Homo sapiens) (UniProt P33981); assay: Inhibition of human TTK at 1 uM relative to control
Sequence of Dual specificity protein kinase TTK (Homo sapiens) (P33981 whole entry): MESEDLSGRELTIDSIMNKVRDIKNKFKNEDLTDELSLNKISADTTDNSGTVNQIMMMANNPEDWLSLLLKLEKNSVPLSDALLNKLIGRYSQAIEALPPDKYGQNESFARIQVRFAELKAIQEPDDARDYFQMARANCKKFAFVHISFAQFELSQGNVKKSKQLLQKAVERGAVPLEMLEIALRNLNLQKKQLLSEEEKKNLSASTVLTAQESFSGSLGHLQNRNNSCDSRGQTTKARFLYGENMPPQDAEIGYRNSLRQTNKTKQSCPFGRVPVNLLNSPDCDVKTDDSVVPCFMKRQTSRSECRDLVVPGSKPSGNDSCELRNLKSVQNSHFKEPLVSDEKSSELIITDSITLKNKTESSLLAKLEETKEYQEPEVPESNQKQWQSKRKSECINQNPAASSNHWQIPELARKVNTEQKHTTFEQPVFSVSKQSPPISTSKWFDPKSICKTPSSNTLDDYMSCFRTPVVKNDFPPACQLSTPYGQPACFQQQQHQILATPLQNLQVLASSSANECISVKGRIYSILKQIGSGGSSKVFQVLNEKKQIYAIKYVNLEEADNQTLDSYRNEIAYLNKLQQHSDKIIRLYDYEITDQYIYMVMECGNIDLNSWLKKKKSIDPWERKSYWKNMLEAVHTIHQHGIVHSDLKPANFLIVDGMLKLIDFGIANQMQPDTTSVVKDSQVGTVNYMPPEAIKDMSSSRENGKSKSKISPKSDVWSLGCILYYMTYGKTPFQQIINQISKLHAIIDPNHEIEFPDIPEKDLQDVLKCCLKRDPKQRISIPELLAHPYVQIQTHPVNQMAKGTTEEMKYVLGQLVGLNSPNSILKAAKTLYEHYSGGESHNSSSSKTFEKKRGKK

[31] = system: MIA PaCa-2; assay: Cell cycle arrest in human MIA PaCa-2 cells assessed as accumulation at G1 phase; assay type: functional, cell-based; conditions: dose 0.8-2.5 µM
[32] = system: MIA PaCa-2; assay: Antiproliferative activity against human MIA PaCa-2 cells assessed as inhibition of cell proliferation at 1 uM in presence of PI3K/mTOR inhibitor, BEZ235; assay type: functional, cell-based

pIC50 [10]: 4.17 | pIC50 [11]: 4.97 | solubility [12]: > 64 µg/mL | Papp [13]: 123 ×10⁻⁶ cm/s | Papp [14]: < 1 ×10⁻⁶ cm/s | half-life [15]: > 0.5 h | half-life [16]: 2.44 h
Structure (SMILES): CN(C)C(=O)c1cc2cnc(Nc3ccc(N4CCNCC4)cn3)nc2n1C1CCCC1 [RIBOCICLIB]
Activity [1]: 77.2% | Activity [2]: 72.41% | Activity [3]: 66.97% | Activity [4]: 4.09% | Activity [5]: 5.47% | Activity [6]: 5.5% | Activity [7]: 18.72% | Activity [8]: 22.12% | Activity [9]: 27.53%

pIC50 [17]: 6.84 | pIC50 [11]: 4.89
Structure (SMILES): CN(C)C(=O)c1cc2cnc(Nc3ccc(Cl)cc3)nc2n1C1CCCC1

pIC50 [10]: 4.98 | pIC50 [18]: 6.77 | pIC50 [17]: 7.27 | pIC50 [11]: 5.58
Structure (SMILES): COc1cccc(NC(=O)c2cc3cnc(Nc4ccc(N5CCNCC5)cn4)nc3n2C2CCCC2)c1

pIC50 [17]: 5.52 | pIC50 [11]: 3.90
Structure (SMILES): O=C(Nc1ccc[n+]([O-])c1)c1cc2cnc(Nc3ccc(N4CCNCC4)cn3)nc2n1C1CCCC1

inhibition [19]: Active | inhibition [20]: Active | pIC50 [10]: 5.29 | pIC50 [18]: 7.20 | pIC50 [17]: 7.54 | pIC50 [11]: 5.55
Structure (SMILES): O=C(Nc1ccccc1)c1cc2cnc(Nc3ccc(N4CCNCC4)cn3)nc2n1C1CCCC1

pIC50 [17]: < 4.00 | pIC50 [11]: < 3.70
Structure (SMILES): O=C(Nc1ccccc1)c1cc2cnc(N3CCN(c4ccc(Cl)cc4)CC3)nc2n1C1CCCC1

pIC50 [17]: 7.03 | pIC50 [11]: 4.26
Structure (SMILES): CN(C)C(=O)c1cc2cnc(Nc3ccccc3)nc2n1C1CCCC1

pIC50 [17]: < 4.00 | pIC50 [11]: 4.52
Structure (SMILES): CN(C)C(=O)c1cc2cnc(Nc3ccc(N4CCNCC4)cn3)nc2n1Cc1ccccc1

inhibition [19]: Active | inhibition [20]: Active | inhibition [23]: > 80% | inhibition [24]: > 80% | inhibition [25]: > 80% | inhibition [26]: > 80% | inhibition [27]: > 80% | inhibition [28]: > 80% | inhibition [29]: > 80% | inhibition [30]: > 80% | pIC50 [10]: 5.39 | pIC50 [18]: 7.28 | pIC50 [17]: 7.69 | pIC50 [11]: 5.74 | solubility [12]: 1.1 µg/mL (≈ 2.15 µM) | Papp [13]: 464 ×10⁻⁶ cm/s | Papp [14]: 517 ×10⁻⁶ cm/s | half-life [15]: > 0.5 h | half-life [16]: 1.21 h
Structure (SMILES): COc1ccccc1NC(=O)c1cc2cnc(Nc3ccc(N4CCNCC4)cn3)nc2n1C1CCCC1
Activity [21]: Active | Ratio IC50 [22]: 10 | Activity [31]: Dose-dependent effect | Activity [1]: 74.31% | Activity [2]: 65.48% | Activity [3]: 60% | Activity [4]: 4.06% | Activity [5]: 3.69% | Activity [6]: 4.85% | Activity [7]: 21.63% | Activity [8]: 30.8% | Activity [9]: 35.15% | Activity [32]: Active

pIC50 [17]: 6.28 | pIC50 [11]: 4.51
Structure (SMILES): CCC(CO)Nc1ncc2cc(C(=O)N(C)C)n(C3CCCC3)c2n1 (stereo not given)

pIC50 [10]: 5.44 | pIC50 [18]: 6.57 | pIC50 [17]: 7.55 | pIC50 [11]: 5.65
Structure (SMILES): COc1ccc(NC(=O)c2cc3cnc(Nc4ccc(N5CCNCC5)cn4)nc3n2C2CCCC2)c(OC)c1

pIC50 [11]: 5.24
Structure (SMILES): CCN1CCN(Cc2ccc(Nc3ncc(F)c(-c4cc(F)c5nc(C)n(C(C)C)c5c4)n3)nc2)CC1 [ABEMACICLIB]
